The subject of experiment [1] is A3T3 (DNA, duplex) CGCGAAATTTCGCG
The experiment can be described thus: ITC. The conditions noted are these: Na+ (10 mM sodium phosphate, 10 mM NaCl); buffer A pH 7.5, 25 °C; TC into 40 μM A3T3; single site model.

The subject of experiment [2] is t-(AT)2 (DNA, duplex) ATATCGCGATAT
The experiment is described as follows: absorption and fluorescence titration. The conditions noted are these: Na+ (10 mM sodium phosphate, 10 mM NaCl); buffer A pH 7.5, 25 °C; mixed intercalation and incomplete groove binding.

Experiment [3] concerns A2T2 (DNA, duplex) CGCGAATTCGCG
The experiment can be described thus: absorption, fluorescence and NMR titration. The conditions noted are these: Na+ (10 mM sodium phosphate, 10 mM NaCl); buffer A pH 7.5, 25 °C; minor groove at 1:1, intercalation at low [DNA]/[TC].

For experiment [4], the system named is (AT)2 (DNA, duplex) CGCGATATCGCG
The experiment is described as follows: absorption and fluorescence titration. The conditions noted are these: Na+ (10 mM sodium phosphate, 10 mM NaCl); buffer A pH 7.5, 25 °C; minor groove at 1:1, intercalation at low [DNA]/[TC].

Experiment [5] deals with AT (DNA, duplex) CGCGATCGCG
The experiment can be described thus: absorption and fluorescence titration. The conditions noted are these: Na+ (10 mM sodium phosphate, 10 mM NaCl); buffer A pH 7.5, 25 °C; mixed intercalation and incomplete groove binding.

Experiment [6] has as its system CG (DNA, duplex) CGCGCGCGCGCG
The experiment is described as follows: absorption titration, NMR line broadening. The conditions noted are these: Na+ (10 mM sodium phosphate, 10 mM NaCl); buffer A pH 7.5, 25 °C; intercalation only, almost no fluorescence enhancement.

The source of these data is PMC7497988 (2020).

For `CCN(CC)c1ccc2cc(/C=C/c3sc4ccccc4[n+]3C)c(=O)oc2c1`, the Kd – broadly, a measure of binding affinity in units of concentration – in experiment [1] was determined as 2.9 µM. For the same compound, the binding entry in experiment [2], in experiment [3], in experiment [4], in experiment [5] and in experiment [6] was “yes” each time.
